In article PMC11509018, “Evaluation of the Role of Tanshinone I in an In Vitro System of Charcot-Marie-Tooth Disease Type 2N” (International Journal of Molecular Sciences, 2024):

Molecular target: T1, AlaRS E337K binding to Nrp1 (Homo sapiens, UniProt P49588, E337K)
T1 construct: expressed in transfected cells
T1 sequence (P49588 1-968 E337K): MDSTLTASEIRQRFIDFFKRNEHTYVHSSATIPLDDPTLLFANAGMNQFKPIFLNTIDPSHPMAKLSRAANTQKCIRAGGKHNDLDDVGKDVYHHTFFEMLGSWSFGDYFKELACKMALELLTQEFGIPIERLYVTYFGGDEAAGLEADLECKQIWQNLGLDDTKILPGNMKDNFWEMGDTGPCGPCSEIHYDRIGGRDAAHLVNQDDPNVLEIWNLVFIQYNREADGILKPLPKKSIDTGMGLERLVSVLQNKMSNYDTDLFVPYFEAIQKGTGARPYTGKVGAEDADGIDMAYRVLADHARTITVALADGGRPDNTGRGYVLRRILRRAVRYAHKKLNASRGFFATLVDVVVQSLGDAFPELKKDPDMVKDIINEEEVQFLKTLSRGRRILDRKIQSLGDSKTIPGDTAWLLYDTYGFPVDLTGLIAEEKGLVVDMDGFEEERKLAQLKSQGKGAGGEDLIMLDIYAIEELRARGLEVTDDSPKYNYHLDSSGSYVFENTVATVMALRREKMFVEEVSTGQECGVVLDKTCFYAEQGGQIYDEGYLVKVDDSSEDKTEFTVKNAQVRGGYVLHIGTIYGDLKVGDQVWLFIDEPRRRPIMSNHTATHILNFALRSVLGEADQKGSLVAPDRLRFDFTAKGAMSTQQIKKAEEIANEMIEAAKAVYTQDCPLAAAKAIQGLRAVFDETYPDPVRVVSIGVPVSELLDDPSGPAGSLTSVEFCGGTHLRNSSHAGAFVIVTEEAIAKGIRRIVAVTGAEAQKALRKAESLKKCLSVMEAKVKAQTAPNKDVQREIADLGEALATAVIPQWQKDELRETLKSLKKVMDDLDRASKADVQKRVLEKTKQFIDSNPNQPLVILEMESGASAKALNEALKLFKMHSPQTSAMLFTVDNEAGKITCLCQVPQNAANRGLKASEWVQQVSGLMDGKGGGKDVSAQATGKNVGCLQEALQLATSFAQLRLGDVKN
Test: Co-IP of HA-AlaRS mutant with Nrp1 in transfected cells
Format: cell-based
Settings: 20 µM Tanshinone I for 24 h, ImageJ, average of three repeats

Mean density band (E337K), relative quantification of AlaRS mutant immunoprecipitated: 0.62
Structure (SMILES): Cc1coc2c1C(=O)C(=O)c1c-2ccc2c(C)cccc12 [Tanshinone I]
